Series [1] can be described thus: Cyclic voltammetry of the compounds of Examples 3, 4a and 4b. It counts as physicochemical. To be noted: for Redox potential E^0′ vs. Ag/AgCl: single redox process; for Decomposition during cyclic voltammetry: both acidic and neutral electrolytes; for Redox potential vs. Ag/AgCl, first redox process / Redox potential vs. Ag/AgCl, second redox process: neutral electrolyte. How it is done: All CV measurements were carried out in a custom built 10 ml three-electrode electrochemical cell. The lower part of the cell holds the electrolyte of interest. In the upper part are ports to hold the working electrode, reference electrode and auxiliary electrode as well as inlet and outlet for N2 gas. […] Cyclic voltammograms were recorded at scan rates of 10 mVs^−1, 20 mVs^−1, 50 mVs^−1, 100 mVs^−1 and 250 mVs^−1 at room temperature. Prior to measurements, the electrolyte was de-aerated by continuously purging with N2 gas for 10-15 minutes and maintaining a N2 flow-blanket throughout the experiment to minimize any environmental contamination. Also, 80% of the ohmic drop was compensated for during the experiment using a positive feedback-loop.

The nature of series [2]: Solubility testing, saturated solutions in milli-Q water at ambient temperature. Conditions: thermodynamic from solid.
Method: The solutions were centrifuged at 12,500 rpm for 30 minutes. 100 μl of the supernatant were pipetted in triplicates from each of the solution into separate empty vials of known weights. The content of these vails were left to dry in a vacuum oven overnight. The final weights of the vials were determined and the amount of each of the compounds calculated from the weight difference. Solubility in mmol/L for each compound was finally determined.
A short description of series [3]: Water solubility of NDI. It counts as physicochemical.
Series [4] is described as follows: Titration of tertiary NDI in water with 1 M sodium hydroxide. It counts as physicochemical. To be noted: 50 ml 15.6 mM tertiary NDI in water. An excerpt: The quaternization is only necessary if the molecule is to be examined at higher pH values, since the tertiary amine sidechains are protonated for pH values less than about 8 (pKa≈8.1) as shown by the titration curve in FIG. 1. In FIG. 1 it can be seen that the molecule deprotonates above pH 8 and precipitates out of solution. For actual flow battery applications, i.e. redox flow battery according to the present invention, the last reaction step is thus possible to omit.

Series [5] is described as follows: Diffusion NMR of NDI. It counts as physicochemical. An excerpt:
Addition of three protons to each NDI molecule at pH values as high as 3 is unlikely, since the third proton would be at a weakly basic carbonyl. This is further supported by the lack of buffering at lower pHs in the titration curve in FIG. 1.

Series [6] in a line: Cyclic voltammetry of NDI at different pH values. It counts as physicochemical. Conditions: pH below 3. The source says: The electrochemistry of NDI was examined by CV at a range of different pH values, to gain understanding of the electron transfer reaction mechanism. FIG. 2a and FIG. 2b show cyclic voltammograms (CVs) for NDI at pH 7 and 0, respectively. […] The broadness of the first reduction at pH 7, is assumed to be due to the possibility for the first electron to add at different positions of NDI.
A plot of the reduction potentials for NDI at different pHs is seen in FIG. 3. […] The second reduction, the triangles in the figure, has a slope of 91 mV/pH at pH below 3, indicating a one electron-1.5 proton relationship, according to the Nernst equation.

A short description of series [7]: Bulk electrolysis cycling of NDI. Conditions: 25 mM in pH 6.4 phosphate buffer, twelve cycles at 15 mA, roughly a week. It counts as physicochemical. Here is the method: A solution of 25 mM NDI in pH 6.4 sodium phosphate buffer was cycled in a bulk electrolysis cell, where all of the material is reduced, as opposed to CV and RDE, where only a small fraction of the material is probed. A galvanostatic BE setting was used, where a constant current of 40 mA was applied. The electrolysis was intermittently paused, allowing for CVs to be collected to be able to quantify the amount of NDI that has been reduced. The peak heights from the CVs were correlated to the passed current, and it was seen that the complete capacity of NDI could be accessed using bulk electrolysis. […] For NDI, the reduction of the molecule lowers the monomer concentration in the solution, and the dimerization equilibrium is shifted in the direction of dimer separation.
After the initial sweep, continuous cycling at a current of 15 mA was performed for twelve cycles. A CV was collected after the cycling had finished, roughly a week after starting. […] Apart from that, the NDI molecule is synthesized via a one-step reaction, at room temperature in water with an almost 100% yield. It is water soluble up to 0.7 M, and has a lower reduction potential than any of the other examined molecules, resulting in a high battery voltage in the application.

Where [8] appears, read: acidic electrolyte (1 M sulfuric acid).
The mark [9] stands for this setting: 0.5M sodium phosphate buffer of pH 7, scan rate 10 mVs^−1.
Setting [10] is: 0.5M sodium phosphate buffer of pH 7, scan rate 20 mVs^−1.
Setting [11] is: 0.5M sodium phosphate buffer of pH 7, scan rate 50 mVs^−1.
The mark [12] stands for this setting: 0.5M sodium phosphate buffer of pH 7, scan rate 100 mVs^−1.
Setting [13] is: 0.5M sodium phosphate buffer of pH 7, scan rate 250 mVs^−1.
Where [14] appears, read: 1M sulfuric acid, scan rate 10 mVs^−1.
Where [15] appears, read: 1M sulfuric acid, scan rate 20 mVs^−1.
Setting [16] is: 1M sulfuric acid, scan rate 50 mVs^−1.
Setting [17] is: 1M sulfuric acid, scan rate 100 mVs^−1.
Where [18] appears, read: 1M sulfuric acid, scan rate 250 mVs^−1.

Four compounds from patent publication US20230318003A1, “REDOX FLOW BATTERY AND AQUEOUS-BASED SOLUTION” (RIVUS AB, priority 2020, published 2023) can be followed below.

Regarding `C[N+](C)(C)CCCN1C(=O)c2ccc3c4c(ccc(c24)C1=O)C(=O)N(CCC[N+](C)(C)C)C3=O` [Compound 2, Benzo[Imn][3,8]phenanthroline-2,7-dipropanaminium, 1,3,6,8-tetrahydro-N,N,N,N′,N′,N′-hexamethyl-1,3,6,8-tetraoxo-, dichloride], the “Redox potential E^0′ vs. Ag/AgCl” value in series [1] (setting [8]) is reported as roughly −0.32 V. In addition, the “Decomposition during cyclic voltammetry” value in series [1] is recorded as “no evidence of decomposition”. In addition, the “Redox potential vs. Ag/AgCl, first redox process” value in series [1] (first redox process) is reported as roughly −0.30 V. Further, the “Redox potential vs. Ag/AgCl, second redox process” value in series [1] (second redox process) was roughly −0.63 V. Moreover, the solubility (in general, the dissolved amount per volume that the medium holds) in series [2] (Average, average of tests 1-3) came out at 678 mM; in series [2] (Test 1, milli-Q water), 653 mM; in series [2] (Test 2, milli-Q water), 689 mM; in series [2] (Test 3, milli-Q water) it was 691 mM.
Turning to “4,9-dibromo-2,7-bis(3-(dimethylamino)propyl)benzo[Imn][3,8]phenanthroline-1,3,6,8(2H,7H)-tetraone [Compound 1]”, the “E^0′ vs. Ag/AgCl” value in series [1] (setting [9]) is listed as −0.43 V; in series [1] (setting [10]), −0.43 V; in series [1] (setting [11]), −0.43 V; in series [1] (setting [12]), −0.43 V; in series [1] (setting [13]), −0.43 V; in series [1] (setting [14]), −0.13 V. The “E^0′ vs. Ag/AgCl” value in series [1] (setting [15]), in series [1] (setting [16]), in series [1] (setting [17]) and in series [1] (setting [18]) was −0.13 V in each case. In addition, the “peak current ratio ipa/ipc” value in series [1] (setting [9]) is recorded as 0.82 ± 0.04; in series [1] (setting [10]), 0.80 ± 0.05; in series [1] (setting [11]), 0.74 ± 0.06; in series [1] (setting [12]), 0.69 ± 0.07; in series [1] (setting [13]) it was 0.63 ± 0.07; in series [1] (setting [14]) it was 0.91 ± 0.05. In addition, the “peak current ratio ipa/ipc” value in series [1] (setting [15]) is given as 0.92 ± 0.01; in series [1] (setting [16]), 0.89 ± 0.02; in series [1] (setting [17]), 0.87 ± 0.00; in series [1] (setting [18]), 0.82 ± 0.01. The ΔEp in series [1] (setting [9]) amounted to 49.21 ± 8.49 mV; in series [1] (setting [10]) it was 51.87 ± 9.16 mV; in series [1] (setting [11]), 61.48 ±12.09 mV; in series [1] (setting [12]) it was 68.59 ± 14.05 mV; in series [1] (setting [13]), 86.49 ± 20.99 mV; in series [1] (setting [14]), 63.67 ± 10.03 mV. In addition, the ΔEp in series [1] (setting [15]) was found to be 63.31 ± 10.97 mV; in series [1] (setting [16]), 64.97 ± 10.46 mV; in series [1] (setting [17]) it was 66.31 ± 9.29 mV; in series [1] (setting [18]) it was 71.25 ± 11.85 mV. For the same compound, the “Redox potential E^0′ vs. Ag/AgCl” value in series [1] (setting [8]) was −0.13 V; in series [1] (neutral electrolyte (0.5 M sodium phosphate buffer pH 7)), −0.43 V.
Take `C[N+](C)(C)CCCN1C(=O)c2cc(Br)c3c4c(cc(Br)c(c24)C1=O)C(=O)N(CCC[N+](C)(C)C)C3=O` [Compound 3, 3,3′-(4,9-dibromo-1,3,6,8-tetraoxo-1,3,6,8-tetrahydrobenzo[Imn][3,8]phenanthroline-2,7-diyl)bis(N,N,N-trimethylpropan-1-aminium) chloride]: the “Potential vs. Ag/AgCl, first pair of peaks” value in series [1] (acidic electrolyte, first redox process) is on record as roughly −0.13 V. Also, the “Potential vs. Ag/AgCl, second pair of peaks” value in series [1] (acidic electrolyte, second redox process) is roughly −0.38 V. Further, in series [1], the “Decomposition during cyclic voltammetry” value is “no evidence of decomposition”. The “Redox potential vs. Ag/AgCl, first redox process” value in series [1] (first redox process) is −0.05 V. Also, the “Redox potential vs. Ag/AgCl, second redox process” value in series [1] (second redox process) is −0.65 V. For the same compound, the solubility turned out to be 149 mM in series [2] (Average, average of tests 1-3); 142 mM in series [2] (Test 1, milli-Q water); 151 mM in series [2] (Test 2, milli-Q water); 154 mM in series [2] (Test 3, milli-Q water).
On to `CN(C)CCCN1C(=O)c2ccc3c4c(ccc(c24)C1=O)C(=O)N(CCCN(C)C)C3=O` [NDI, 2,7-bis(3-(dimethylamino)propyl)benzo[Imn][3,8]phenanthroline-1,3,6,8(2H,7H)-tetraone], for which the Water solubility result in series [3] is reported as “up to 0.7 M”. For the same compound, in series [4], the “pKa of tertiary amine sidechains” value is recorded as “≈ 8.1”. The Diffusion coefficient in series [5] (acid solution) was 2.57 ×10^−6 cm^2 s^−1; in series [5] (neutral solution), 2.34 ×10^−6 cm^2 s^−1. In series [6], the “Slope of second reduction potential versus pH” value is 91 mV/pH. Further, the “Material degradation after cycling (CV before vs after)” value in series [7] is reported as “no or little material degradation”.
